Measured values reported in patent US4707488A, “Dopamine-β-hydroxylase inhibitors and use thereof” (Smithkline Beckman Corporation, priority 1985, dated 1987).
Like-named read-outs stand apart in the source and are kept apart here. Blank lines part the entries; values can stand above or below the compound they belong to.

How the values were obtained:
DBH = target: T1, DBH (Bos taurus, UniProt P15101); test: in vitro DBH inhibition, conversion of tyramine to octopamine; type: biochemical
T1 sequence (P15101 1-610): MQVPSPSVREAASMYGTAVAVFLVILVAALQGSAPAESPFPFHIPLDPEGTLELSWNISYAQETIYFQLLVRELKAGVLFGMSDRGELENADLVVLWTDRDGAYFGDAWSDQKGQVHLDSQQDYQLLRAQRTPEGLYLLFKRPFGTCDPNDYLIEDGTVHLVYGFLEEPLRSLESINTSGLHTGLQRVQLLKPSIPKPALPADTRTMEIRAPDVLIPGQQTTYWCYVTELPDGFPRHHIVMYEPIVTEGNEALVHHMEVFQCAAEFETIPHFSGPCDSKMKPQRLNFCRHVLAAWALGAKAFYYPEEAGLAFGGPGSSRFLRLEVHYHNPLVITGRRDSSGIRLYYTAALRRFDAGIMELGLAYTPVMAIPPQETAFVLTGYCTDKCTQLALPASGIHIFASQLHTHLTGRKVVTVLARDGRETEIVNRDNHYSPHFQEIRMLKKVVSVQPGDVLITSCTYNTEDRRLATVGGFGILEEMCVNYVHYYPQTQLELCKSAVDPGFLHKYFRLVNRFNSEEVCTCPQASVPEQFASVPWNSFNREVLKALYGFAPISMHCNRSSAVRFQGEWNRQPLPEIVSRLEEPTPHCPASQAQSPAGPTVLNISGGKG
Method: Compounds of the invention and other compounds useful in the method of the invention were screened for in vitro DBH inhibition by a standard procedure for assaying conversion of tyramine to octopamine in the presence of DBH. Octopamine was assayed following sodium periodate oxidation to p-hydroxybenzaldehyde by measuring spectrophotometric absorbance at 330 nm. Inhibition is given in molar concentration of compound at which DBH activity was halved (IC50). Melting points (mp) are given in °C. By this procedure fusaric acid has an IC50 of about 8×10^-7.

[1] = mean arterial blood pressure, indwelling cannulae inserted into the tail artery; type: in vivo, Spontaneously hypertensive rats; conditions: 50 mg/kg, ip
Method: (§1) Various compounds of the invention were tested for their effects in vivo on peripheral dopamine (DA) and norepinephrine (NE) levels substantially by the procedure of DaPrada and Zurcher, Life Sci., 19, 1161, (1976). Spontaneously hypertensive rats were dosed twice, the second dose being about 18 hours after the first, and were sacrificed about 2 hours after the second dose.
Further, the same rats were dosed with a suspension or solution at a dose of 50 mg/kg of test compound i.p. and mean arterial blood pressure was determined with indwelling cannulae inserted into the tail artery.

[2] = test system: peripheral dopamine (DA) and norepinephrine (NE) levels; test: in vivo effects on peripheral dopamine (DA) and norepinephrine (NE) levels; parameters: species or system Spontaneously hypertensive rats; conditions: dosed twice about 18 hours apart, sacrificed about 2 hours after second dose
Method: as §1

[3] = Teresawa et al., Japan Cir. J. 35, 339 (1971); cited from earlier work
[4] = octopamine assayed after periodate oxidation, absorbance at 330 nm, read-out: IC50 (molar concentration of compound at which DBH activity was halved)

SMILES: Sc1nnnn1Cc1ccccc1 [Example 6, 1-Benzyl-5-mercaptotetrazole]
IC50 (DBH; [4]): 13 µM
reduction in mean arterial pressure [1]: significant reduction in mean arterial pressure

SMILES: Sc1nnnn1CCCc1ccccc1 [Example 5, 1-(3-Phenylpropyl)-5-mercaptotetrazole]
IC50 (DBH; [4]): 2.4 µM

SMILES: Sc1nnnn1Cc1c(Cl)cccc1Cl [Example 3, 1-(2,6-Dichlorobenzyl)-5-mercaptotetrazole]
IC50 (DBH; [4]): 9.2 µM

SMILES: CCCCc1ccc(C(=O)O)nc1 [Fusaric acid, fusaric acid, reference compound]
IC50 (DBH): ~0.8 µM
hepatotoxicity [3]: hepatotoxic

SMILES: COc1ccc(Cn2nnnc2S)cc1 [Example 4, 1-(4-Methoxybenzyl)-5-mercaptotetrazole]
IC50 (DBH; [4]): 15 µM

The next lines start with results.

IC50 (DBH; [4]): 0.39 µM
SMILES: Sc1nnnn1CCCc1cc(Cl)cc(Cl)c1 [Example 9, 1-(3-(3,5-Dichlorophenyl)propyl)-5-mercaptotetrazole]

IC50 (DBH; [4]): 1 µM
SMILES: Sc1nnnn1Cc1cc(Cl)cc(Cl)c1 [Example 2, 1-(3,5-Dichlorobenzyl)-5-mercaptotetrazole]
DA/NE Ratio [2]: 0.053 ± 0.0035
DA ([2]; micrograms per gram of tissue): 0.360 ± 0.015 µg/g
NE ([2]; micrograms per gram of tissue): 6.838 ± 0.257 µg/g
reduction in mean arterial pressure [1]: significant reduction in mean arterial pressure

IC50 (DBH; [4]): 0.79 µM
SMILES: Oc1ccc(CCCn2nnnc2S)cc1 [Example 11, 1-(3-(4-Hydroxyphenyl)propyl)-5-mercaptotetrazole]

IC50 (DBH; [4]): 0.08 µM
SMILES: Oc1c(F)cc(CCCn2nnnc2S)cc1F [Example 12, 1-(3-(3,5-Difluoro-4-hydroxyphenyl)propyl)-5-mercaptotetrazole]

IC50 (DBH; [4]): 1.5 µM
SMILES: Fc1cc(F)cc(Cn2nnnc2S)c1 [Example 1, 1-(3,5-Difluorobenzyl)-5-mercaptotetrazole]

IC50 (DBH; [4]): 0.35 µM
SMILES: Fc1cc(F)cc(CCCn2nnnc2S)c1 [Example 7, 1-(3-(3,5-Difluorophenyl)propyl)-5-mercaptotetrazole]
